Reference: ChEMBL document CHEMBL1201862, “PubChem BioAssay data set” (2004)
Activity calls are given as the source filed them.

Columns and labels:
[1] = biological target: T1, Beta-lactamase (Salmonella choleraesuis (strain SC-B67), UniProt Q5J463); assay: Epi-absorbance-based counterscreen for selective VIM-2 inhibitors: dose response biochemical high throughput screening assay to identify inhibitors of TEM-1 serine-beta-lactamase.
[2] = biological target: T2, Beta-lactamase (Pseudomonas aeruginosa, UniProt Q79MP6); assay: […] counterscreen for selective VIM-2 inhibitors: dose response biochemical high throughput screening assay to identify inhibitors of IMP-1 metallo-beta-lactamase.
[3] = biological target: T2, Beta-lactamase; assay: IMP-1 metallo-beta-lactamase inhibitors, dose response, selectivity assay for VIM-2 inhibitor project, biochemical, epi-absorbance (AID 1920)
[4] = biological target: Fructose-bisphosphate aldolase (Mycobacterium tuberculosis, UniProt P9WQA3); assay: Fluorescence-based biochemical high throughput dose response assay for inhibitors of the fructose-bisphosphate aldolase (FBA) of M. tuberculosis.; format: functional
[5] = Luminescence Cell-Based Dose Response HTS to Identify Inhibitors of 5'UTR Stem-Loop Driven Prion Protein mRNA Translation in H4 Neuroglioblastoma Cells. [Related pubchem assays: 1827 (Project Summary), 1813 (Primary HTS)]; format: functional
[6] = HEK293T cell cytotoxicity, dose response, cytotoxicity control for HIV Vif inhibitor project, cherry-picks (AID 652208); format: functional, cell-based
[7] = inhibitors of firefly luciferase expression or activity, dose response, H4 neuroglioma cells, luminescence (AID 1990); format: functional, cell-based
[8] = biological target: T3, Voltage-gated N-type calcium channel alpha-1B subunit/Amyloid beta A4 precursor protein-binding family A member 1 (Homo sapiens, UniProt Q00975+Q02410); format: protein assay
[9] = inhibitors of SNCA 5'UTR-driven reporter translation, confirmation, H4 neuroglioma cells, luminescence (AID 1988); format: functional, cell-based
[10] = biological target: T3, Voltage-gated N-type calcium channel alpha-1B subunit/Amyloid beta A4 precursor protein-binding family A member 1; format: protein assay; remark: listed apart in the source
[11] = biological target: T2, Beta-lactamase
[12] = biological target: T1, Beta-lactamase
[13] = biological target: Albumin (Bos taurus, UniProt P02769); assay: Counterscreen for inhibitors of T-cell receptor (TCR)-CD3 interaction: Fluorescence-based biochemical high throughput dose response assay to identify inhibitors of T-cell receptor (TCR)-CD3 interaction using a TAMRA-labeled BSA probe.; format: functional
[14] = biological target: T4, Exodeoxyribonuclease V (Escherichia coli (strain K12), UniProt P04993+P07648+P08394); assay: E. coli RecBCD inhibitors, dose response, counter-screen for AddAB inhibitor project, absorbance, V66 E. coli, mutant T4 phage (AID 492957); format: functional, cell-based, Escherichia coli str. K-12 substr. MG1655
T4 sequence (P04993 whole entry): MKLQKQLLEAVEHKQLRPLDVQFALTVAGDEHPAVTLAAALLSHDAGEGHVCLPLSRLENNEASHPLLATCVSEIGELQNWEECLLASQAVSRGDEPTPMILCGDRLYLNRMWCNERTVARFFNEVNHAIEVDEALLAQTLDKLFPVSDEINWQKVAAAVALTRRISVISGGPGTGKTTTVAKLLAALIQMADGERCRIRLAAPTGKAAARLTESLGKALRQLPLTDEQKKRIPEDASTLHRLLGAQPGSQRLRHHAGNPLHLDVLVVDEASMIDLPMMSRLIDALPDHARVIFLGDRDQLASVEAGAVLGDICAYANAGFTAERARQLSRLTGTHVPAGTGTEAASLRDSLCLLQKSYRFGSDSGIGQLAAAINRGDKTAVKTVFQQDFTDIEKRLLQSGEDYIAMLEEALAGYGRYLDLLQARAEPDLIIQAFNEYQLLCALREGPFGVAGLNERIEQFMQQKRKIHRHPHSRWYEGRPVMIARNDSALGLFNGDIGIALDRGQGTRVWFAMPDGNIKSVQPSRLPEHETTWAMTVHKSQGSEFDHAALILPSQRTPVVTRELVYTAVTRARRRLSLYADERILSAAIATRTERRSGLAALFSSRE
T4 sequence (P07648 whole entry): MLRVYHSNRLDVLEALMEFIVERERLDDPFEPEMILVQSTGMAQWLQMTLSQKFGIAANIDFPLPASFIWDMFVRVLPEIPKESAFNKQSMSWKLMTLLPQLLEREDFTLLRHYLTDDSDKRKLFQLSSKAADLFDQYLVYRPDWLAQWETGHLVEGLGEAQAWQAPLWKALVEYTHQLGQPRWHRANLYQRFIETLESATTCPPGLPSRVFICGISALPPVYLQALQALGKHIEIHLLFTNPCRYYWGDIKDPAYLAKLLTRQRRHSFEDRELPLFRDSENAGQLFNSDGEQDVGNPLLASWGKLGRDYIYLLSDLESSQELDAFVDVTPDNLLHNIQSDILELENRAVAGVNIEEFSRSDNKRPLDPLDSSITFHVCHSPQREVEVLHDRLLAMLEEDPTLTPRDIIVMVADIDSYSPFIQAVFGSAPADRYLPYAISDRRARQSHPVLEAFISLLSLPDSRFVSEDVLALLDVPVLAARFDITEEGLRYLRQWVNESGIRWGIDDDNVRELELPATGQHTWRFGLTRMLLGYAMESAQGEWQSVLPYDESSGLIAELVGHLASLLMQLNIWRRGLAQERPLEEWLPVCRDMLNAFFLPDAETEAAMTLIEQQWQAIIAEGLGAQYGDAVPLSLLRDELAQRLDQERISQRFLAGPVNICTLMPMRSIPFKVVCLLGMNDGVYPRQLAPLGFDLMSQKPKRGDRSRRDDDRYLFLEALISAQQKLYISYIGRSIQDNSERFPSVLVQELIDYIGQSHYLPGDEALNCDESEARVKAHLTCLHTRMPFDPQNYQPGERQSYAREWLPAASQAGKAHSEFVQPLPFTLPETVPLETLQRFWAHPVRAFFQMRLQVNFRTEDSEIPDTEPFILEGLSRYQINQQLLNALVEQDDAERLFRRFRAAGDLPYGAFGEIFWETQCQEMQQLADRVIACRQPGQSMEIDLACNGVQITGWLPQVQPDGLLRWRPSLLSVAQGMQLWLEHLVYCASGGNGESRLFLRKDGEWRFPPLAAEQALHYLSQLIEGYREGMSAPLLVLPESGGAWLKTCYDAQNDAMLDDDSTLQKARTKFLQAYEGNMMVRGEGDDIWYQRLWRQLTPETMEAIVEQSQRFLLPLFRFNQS
T4 sequence (P08394 whole entry): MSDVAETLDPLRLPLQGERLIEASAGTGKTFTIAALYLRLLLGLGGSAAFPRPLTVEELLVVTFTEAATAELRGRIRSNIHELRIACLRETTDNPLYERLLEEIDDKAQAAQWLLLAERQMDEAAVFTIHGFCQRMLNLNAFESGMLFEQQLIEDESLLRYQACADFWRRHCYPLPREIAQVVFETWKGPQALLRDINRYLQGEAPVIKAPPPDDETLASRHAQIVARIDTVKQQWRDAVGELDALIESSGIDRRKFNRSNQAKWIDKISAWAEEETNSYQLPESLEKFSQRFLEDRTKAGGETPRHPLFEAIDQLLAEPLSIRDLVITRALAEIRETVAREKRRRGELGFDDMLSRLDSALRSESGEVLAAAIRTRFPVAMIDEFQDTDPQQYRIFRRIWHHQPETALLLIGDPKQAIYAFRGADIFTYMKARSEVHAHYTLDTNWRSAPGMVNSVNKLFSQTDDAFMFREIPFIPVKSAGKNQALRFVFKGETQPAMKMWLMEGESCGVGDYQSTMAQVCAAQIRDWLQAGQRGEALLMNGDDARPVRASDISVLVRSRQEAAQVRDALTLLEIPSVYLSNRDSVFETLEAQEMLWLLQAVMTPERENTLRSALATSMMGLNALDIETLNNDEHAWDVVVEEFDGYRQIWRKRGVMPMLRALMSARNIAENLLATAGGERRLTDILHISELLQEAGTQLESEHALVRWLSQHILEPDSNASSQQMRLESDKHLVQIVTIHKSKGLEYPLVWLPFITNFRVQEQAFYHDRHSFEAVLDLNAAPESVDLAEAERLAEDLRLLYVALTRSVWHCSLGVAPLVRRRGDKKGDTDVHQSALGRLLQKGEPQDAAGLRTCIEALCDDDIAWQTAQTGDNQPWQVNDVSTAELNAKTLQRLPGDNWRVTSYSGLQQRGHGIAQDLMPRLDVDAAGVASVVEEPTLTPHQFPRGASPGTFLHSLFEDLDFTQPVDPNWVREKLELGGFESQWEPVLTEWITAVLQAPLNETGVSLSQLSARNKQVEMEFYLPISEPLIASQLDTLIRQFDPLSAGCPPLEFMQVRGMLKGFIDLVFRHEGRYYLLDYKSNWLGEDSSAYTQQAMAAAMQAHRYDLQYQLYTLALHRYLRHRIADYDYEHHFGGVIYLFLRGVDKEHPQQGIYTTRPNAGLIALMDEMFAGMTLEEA

[15] = Counterscreen for AddAB inhibitors: absorbance-based bacterial cell-based high throughput dose response assay for inhibitors of bacterial viability. [Related pubchem assays (depositor defined):AID435030, AID449728, AID449731, AID488942, AID488955, AID488956]; format: functional
[16] = system: HeLa; assay: HeLa cell cytotoxicity, dose response, cytotoxicity control, ATP luminescence, cherry-pick samples (AID 687004); format: functional, cell-based; details: Homo sapiens
[17] = system: HEK293; assay: HEK293T cell cytotoxicity, dose response, cytotoxicity control, ATP luminescence, cherry-pick samples (AID 687005); format: functional, cell-based; details: Homo sapiens;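 further: cells exposed to compound for 48 hours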
[18] = HEK293 Cytotoxicity Assay Measured in Cell-Based System Using Plate Reader - 7071-01_Inhibitor_Dose_CherryPick_Activity_Set2.; format: functional
[19] = intracellular Trypanosoma cruzi inhibitors in host cells – cell-based, plate reader, cherry-pick samples, set 3, dose response (AID 651818); format: functional;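 further: compounds incubated with infected cells for about four days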
[20] = cytotoxicity in ldlA[mSR-BI] CHO cells, dose response, cytotoxicity control for SR-BI HDL uptake inhibitor project, cell-based, CellTiter-Glo, 24 h, powder samples, set 7 (AID 624026); format: functional
[21] = biological target: T5, Scavenger receptor class B member 1 (Mus musculus, UniProt Q61009); assay: inhibitors of SR-BI-mediated HDL uptake, dose response, cell-based, ldlA[mSR-BI] CHO, DiI fluorescence, dry powder, set 10 (AID 624029); format: functional
[22] = biological target: T5, Scavenger receptor class B member 1; assay: inhibitors of SR-BI dependent HDL uptake, dose response, ldlA[mSR-BI] CHO cells, fluorescence plate reader, dry powder, set 9 (AID 623880); format: functional, cell-based
[23] = off-target signal loss in HeLa-CEM21 co-culture – HeLa F-luc CTL cells, cherry-picked, counter-screen for HIV-1 Env fusion inhibitor project, dose response (AID 652040); format: functional, cell-based;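 further: potency for signal decrease marking cytotoxic or nonspecific inhibition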
[24] = biological target: Photoreceptor-specific nuclear receptor (Homo sapiens, UniProt Q9Y5X4); format: functional, cell-based;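 further: CHO-S cells with Gal4-NCOR and VP16-NR2E3 two-hybrid luciferase reporter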
[25] = biological target: Paired box protein Pax-8 (Homo sapiens, UniProt Q06710); assay: inhibitors of PAX8-driven TPO luciferase reporter, dose response, RMG-I cells, cherry-pick (AID 687027); format: functional, cell-based;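 further: luciferase reporter driven by Pax8 target thyroperoxidase promoter measured by SteadyGlo luminescence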
[26] = ZM109 Env clade C HIV-1 fusion inhibitors, dose response, HeLa effector, CEM target cells, luciferase, cherry-pick (AID 652058); format: functional, cell-based
[27] = inhibitors of CMV-promoter luciferase reporter, dose response, counter-screen for Pax8 inhibitor project, cell-based, HEK293, luminescence, dry powder (AID 743020); format: functional
[28] = inhibitors of HIV Env-driven cell fusion, dose response, cherry-pick (AID 652057); format: functional, cell-based
[29] = inhibitors of clade B AD8 Env fusion, dose response, cell-based, cherry-pick (AID 652062); format: functional;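 further: luciferase signal from cell-cell fusion driven by HIV-1 clade B AD8 Env; potency is for inhibitors of fusion seen as a drop in luminescence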
[30] = CEM21 lymphoblast cell cytotoxicity, dose response, cytotoxicity control for viral fusion inhibitor project, CellTiter-Glo luminescence, cherry-picked (AID 652042); format: functional, cell-based;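 further: potency for signal decrease meaning cytotoxicity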

T2 sequence (Q79MP6 whole entry): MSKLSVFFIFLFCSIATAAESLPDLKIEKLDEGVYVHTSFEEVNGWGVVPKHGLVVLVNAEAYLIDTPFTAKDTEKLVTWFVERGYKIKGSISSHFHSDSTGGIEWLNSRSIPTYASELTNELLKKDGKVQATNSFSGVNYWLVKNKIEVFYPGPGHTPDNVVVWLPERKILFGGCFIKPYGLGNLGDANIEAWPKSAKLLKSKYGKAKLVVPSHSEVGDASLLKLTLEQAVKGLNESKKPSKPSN
T1 sequence (Q5J463 whole entry): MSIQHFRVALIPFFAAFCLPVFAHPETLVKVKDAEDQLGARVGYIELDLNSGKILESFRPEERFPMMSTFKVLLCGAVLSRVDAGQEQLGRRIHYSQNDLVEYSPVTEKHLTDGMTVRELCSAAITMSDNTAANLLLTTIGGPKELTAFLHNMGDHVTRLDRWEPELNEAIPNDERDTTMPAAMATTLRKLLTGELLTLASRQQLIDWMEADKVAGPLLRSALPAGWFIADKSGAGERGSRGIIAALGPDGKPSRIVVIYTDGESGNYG
T5 sequence (Q61009 whole entry): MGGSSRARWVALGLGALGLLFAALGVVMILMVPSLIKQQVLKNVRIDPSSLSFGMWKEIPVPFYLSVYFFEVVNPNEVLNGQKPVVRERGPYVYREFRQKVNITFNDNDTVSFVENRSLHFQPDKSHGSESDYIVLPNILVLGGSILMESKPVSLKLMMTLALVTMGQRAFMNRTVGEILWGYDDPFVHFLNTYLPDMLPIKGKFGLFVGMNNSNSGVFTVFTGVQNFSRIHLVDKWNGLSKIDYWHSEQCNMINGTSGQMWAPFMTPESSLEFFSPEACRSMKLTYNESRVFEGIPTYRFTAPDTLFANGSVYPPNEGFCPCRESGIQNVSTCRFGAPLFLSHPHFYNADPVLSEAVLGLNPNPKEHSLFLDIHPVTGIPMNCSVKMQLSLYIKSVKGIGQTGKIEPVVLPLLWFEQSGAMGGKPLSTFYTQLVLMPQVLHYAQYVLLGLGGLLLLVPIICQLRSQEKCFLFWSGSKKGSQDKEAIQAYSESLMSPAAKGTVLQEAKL
T3 sequence (Q00975 whole entry): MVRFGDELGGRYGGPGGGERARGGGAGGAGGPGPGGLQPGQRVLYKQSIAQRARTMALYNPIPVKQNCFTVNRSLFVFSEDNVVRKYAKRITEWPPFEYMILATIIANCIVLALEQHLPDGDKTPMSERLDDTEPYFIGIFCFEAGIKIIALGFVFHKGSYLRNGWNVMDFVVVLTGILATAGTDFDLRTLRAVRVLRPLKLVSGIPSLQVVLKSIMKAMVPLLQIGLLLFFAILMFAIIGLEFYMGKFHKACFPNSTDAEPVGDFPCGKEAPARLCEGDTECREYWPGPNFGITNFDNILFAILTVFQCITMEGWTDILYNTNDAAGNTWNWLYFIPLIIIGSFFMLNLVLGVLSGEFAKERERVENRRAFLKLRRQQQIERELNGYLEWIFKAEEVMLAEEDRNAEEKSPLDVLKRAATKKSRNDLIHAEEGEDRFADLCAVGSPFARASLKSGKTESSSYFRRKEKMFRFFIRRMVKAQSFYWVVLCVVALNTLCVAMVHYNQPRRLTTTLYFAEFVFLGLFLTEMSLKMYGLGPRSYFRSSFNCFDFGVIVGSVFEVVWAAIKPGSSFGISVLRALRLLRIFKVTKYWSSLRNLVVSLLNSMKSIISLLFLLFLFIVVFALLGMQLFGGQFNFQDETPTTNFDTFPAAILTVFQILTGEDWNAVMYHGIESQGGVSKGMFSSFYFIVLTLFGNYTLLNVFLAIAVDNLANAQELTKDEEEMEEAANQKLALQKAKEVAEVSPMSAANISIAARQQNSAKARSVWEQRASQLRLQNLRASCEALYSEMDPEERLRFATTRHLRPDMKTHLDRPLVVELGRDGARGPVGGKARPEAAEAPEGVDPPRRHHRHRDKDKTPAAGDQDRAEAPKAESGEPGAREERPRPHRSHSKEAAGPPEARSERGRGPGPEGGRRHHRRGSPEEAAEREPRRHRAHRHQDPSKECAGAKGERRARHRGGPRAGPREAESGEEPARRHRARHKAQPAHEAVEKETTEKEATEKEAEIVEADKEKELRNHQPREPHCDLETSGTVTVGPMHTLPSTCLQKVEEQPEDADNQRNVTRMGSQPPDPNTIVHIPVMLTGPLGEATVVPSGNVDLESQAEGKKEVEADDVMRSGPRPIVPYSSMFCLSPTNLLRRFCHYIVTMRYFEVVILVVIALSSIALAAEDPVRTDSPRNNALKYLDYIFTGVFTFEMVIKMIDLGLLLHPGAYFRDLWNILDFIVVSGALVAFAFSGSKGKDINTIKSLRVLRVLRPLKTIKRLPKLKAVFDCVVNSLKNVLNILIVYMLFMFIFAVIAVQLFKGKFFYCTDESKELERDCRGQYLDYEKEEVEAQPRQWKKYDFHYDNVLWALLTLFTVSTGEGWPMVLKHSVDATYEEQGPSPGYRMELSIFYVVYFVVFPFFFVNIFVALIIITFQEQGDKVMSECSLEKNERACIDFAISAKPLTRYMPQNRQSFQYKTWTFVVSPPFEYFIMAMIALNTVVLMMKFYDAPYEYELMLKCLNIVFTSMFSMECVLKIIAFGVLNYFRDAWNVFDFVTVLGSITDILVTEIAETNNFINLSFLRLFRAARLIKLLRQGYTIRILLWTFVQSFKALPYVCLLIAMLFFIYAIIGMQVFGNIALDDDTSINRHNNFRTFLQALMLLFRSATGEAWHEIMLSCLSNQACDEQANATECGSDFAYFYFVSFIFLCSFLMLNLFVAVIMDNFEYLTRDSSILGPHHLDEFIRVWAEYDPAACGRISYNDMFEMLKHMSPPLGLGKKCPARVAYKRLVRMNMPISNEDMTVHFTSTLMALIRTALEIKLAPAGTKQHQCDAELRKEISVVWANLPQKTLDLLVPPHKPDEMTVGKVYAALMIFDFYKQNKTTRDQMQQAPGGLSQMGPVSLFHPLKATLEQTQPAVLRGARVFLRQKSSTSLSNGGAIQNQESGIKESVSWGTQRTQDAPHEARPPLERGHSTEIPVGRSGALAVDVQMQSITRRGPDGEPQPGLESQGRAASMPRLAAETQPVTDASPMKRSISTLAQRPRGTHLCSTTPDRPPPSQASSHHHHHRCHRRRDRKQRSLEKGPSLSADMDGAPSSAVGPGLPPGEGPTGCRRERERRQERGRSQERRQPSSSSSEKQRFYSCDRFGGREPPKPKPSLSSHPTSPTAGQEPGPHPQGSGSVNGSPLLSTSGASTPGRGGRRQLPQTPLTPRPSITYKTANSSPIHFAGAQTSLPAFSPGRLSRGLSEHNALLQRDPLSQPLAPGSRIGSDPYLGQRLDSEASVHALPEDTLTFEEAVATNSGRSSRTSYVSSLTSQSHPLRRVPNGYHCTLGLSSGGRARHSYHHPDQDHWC
T3 sequence (Q02410 whole entry): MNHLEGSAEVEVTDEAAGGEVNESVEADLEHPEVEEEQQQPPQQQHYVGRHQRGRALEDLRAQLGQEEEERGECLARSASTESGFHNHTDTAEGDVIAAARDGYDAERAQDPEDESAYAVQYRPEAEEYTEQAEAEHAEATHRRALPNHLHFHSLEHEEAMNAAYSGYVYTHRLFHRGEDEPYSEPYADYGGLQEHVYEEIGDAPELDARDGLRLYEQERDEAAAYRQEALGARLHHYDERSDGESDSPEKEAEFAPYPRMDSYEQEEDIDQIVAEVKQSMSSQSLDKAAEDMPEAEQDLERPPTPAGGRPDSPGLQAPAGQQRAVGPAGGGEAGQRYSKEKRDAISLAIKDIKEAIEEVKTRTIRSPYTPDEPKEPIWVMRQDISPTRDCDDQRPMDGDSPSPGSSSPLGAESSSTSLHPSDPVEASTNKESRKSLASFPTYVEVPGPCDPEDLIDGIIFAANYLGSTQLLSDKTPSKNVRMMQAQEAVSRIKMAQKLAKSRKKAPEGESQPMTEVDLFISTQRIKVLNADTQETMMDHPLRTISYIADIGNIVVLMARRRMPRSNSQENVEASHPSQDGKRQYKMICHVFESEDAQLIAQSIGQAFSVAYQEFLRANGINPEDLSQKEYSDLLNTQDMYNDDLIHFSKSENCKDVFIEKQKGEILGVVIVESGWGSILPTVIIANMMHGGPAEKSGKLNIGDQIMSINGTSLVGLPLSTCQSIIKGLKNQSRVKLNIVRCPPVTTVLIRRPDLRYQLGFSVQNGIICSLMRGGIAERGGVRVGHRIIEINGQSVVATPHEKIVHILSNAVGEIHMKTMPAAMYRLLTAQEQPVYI
Chain of Fructose-bisphosphate aldolase (P9WQA3 whole entry): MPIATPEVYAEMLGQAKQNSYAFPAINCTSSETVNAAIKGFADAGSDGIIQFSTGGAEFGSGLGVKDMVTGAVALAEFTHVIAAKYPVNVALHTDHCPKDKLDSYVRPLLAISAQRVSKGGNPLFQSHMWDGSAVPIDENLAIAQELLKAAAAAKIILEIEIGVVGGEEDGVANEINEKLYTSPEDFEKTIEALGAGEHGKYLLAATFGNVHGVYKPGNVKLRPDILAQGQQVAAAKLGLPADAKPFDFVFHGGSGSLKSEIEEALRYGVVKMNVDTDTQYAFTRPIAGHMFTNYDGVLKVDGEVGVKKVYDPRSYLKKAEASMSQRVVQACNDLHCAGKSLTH
Chain of Photoreceptor-specific nuclear receptor (Q9Y5X4 whole entry, the tested form may be a part): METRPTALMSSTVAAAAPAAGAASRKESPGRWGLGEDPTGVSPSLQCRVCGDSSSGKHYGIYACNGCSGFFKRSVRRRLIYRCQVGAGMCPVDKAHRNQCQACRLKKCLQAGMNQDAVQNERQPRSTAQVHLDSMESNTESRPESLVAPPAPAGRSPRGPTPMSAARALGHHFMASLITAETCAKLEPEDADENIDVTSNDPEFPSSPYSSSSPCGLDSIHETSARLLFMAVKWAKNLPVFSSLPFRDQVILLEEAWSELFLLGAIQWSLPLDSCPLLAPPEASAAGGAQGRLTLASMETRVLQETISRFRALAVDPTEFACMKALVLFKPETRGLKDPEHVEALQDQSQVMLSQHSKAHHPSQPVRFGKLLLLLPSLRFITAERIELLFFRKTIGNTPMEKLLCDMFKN

In the case of CC(=O)c1ccc(-c2ccc(Cn3c(C)nc4cc(N)c(C)nc43)cc2)cc1, the IC50 [1] was > 59.6 µM (inactive), the IC50 [2] was > 59.6 µM (inactive) and the IC50 [3] was > 59.6 µM (inactive).

In the case of CCCNC(=O)c1c(N)n(-c2ccc(S(N)(=O)=O)cc2)c2nc3ccccc3nc12, the IC50 [4] was 0.673 µM (active).

In the case of CCOC(=O)c1cc(-c2ccccc2)sc1NC(=O)COC(=O)c1cccc(S(N)(=O)=O)c1, the EC50 [5] was > 120 µM (not active), the AC50 [6] was 21.3 µM (active) and the EC50 [7] was 13.4 µM (active). For the same compound, the IC50 [8] was 4.51 µM (active), the EC50 [9] was 12.8 µM (active) and the IC50 [10] was > 50 µM (inactive).

For CCN(CC)c1ccc2cc(C=O)c(=O)oc2c1, the IC50 [11] was 57.9 µM (inactive) and the IC50 [12] was 26.7 µM (inactive).

In the case of COc1ccc(/C=C2\SC(=O)N(CC(=O)NNC(=O)c3ccccc3O)C2=O)cc1OC, the IC50 [13] was > 94.1 µM (inactive), the IC50 [14] was > 119 µM (inactive) and the IC50 [15] was > 119 µM (inactive).

With C[C@H](CO)N1C[C@H](C)[C@H](CN(C)Cc2ccc(-c3ccccc3)cc2)Oc2c(NC(=O)c3ccncc3)cccc2C1=O the AC50 [16] was > 52 µM (inactive), the AC50 [17] was 14.2 µM (active) and the AC50 [18] was 14.2 µM (active). The AC50 [19] was 0.08 µM (active).

With CC(C)(C)OC(=O)N1CCN(c2ccc(NC(=O)c3cc([N+](=O)[O-])ccc3Cl)cc2)CC1 the AC50 [20] was > 70 µM (inactive), the AC50 [21] was 0.953 µM (active) and the AC50 [22] was 0.503 µM (active).

For CCC1(O)C(=O)OCc2c1cc1n(c2=O)Cc2cc3c(N)cccc3nc2-1 (stereo not given) [RS-9-Aminocamptothecin], the AC50 [23] was < 0.26 µM (active), the IC50 [24] was 1.83 µM (active) and the AC50 [25] was < 0.26 µM (active). The AC50 [26] was 0.857 µM (active), the AC50 [27] was < 6.17 µM (active) and the AC50 [28] was < 0.26 µM (active). The AC50 [29] was 0.368 µM (active) and the AC50 [30] was 2.67 µM (active).
